Measured values taken from PubChem BioAssay (NCI).
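Where inhibition never reached the appropriate level, the endpoint shown equals the highest concentration tested. Otherwise, values were interpolated linearly from a five-concentration, 48-hour dose response in 96-well plates. At the GI50, growth is halved. At the TGI there is no net growth.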

Columns and labels:
Assay in all cases: NCI anticancer screen, dose series, 48 h
CAKI-1 renal = test system: CAKI-1 renal
UACC-62 melanoma = test system: UACC-62 melanoma
DU-145 prostate = test system: DU-145 prostate
IGROV1 ovarian = test system: IGROV1 ovarian
SK-MEL-2 melanoma = test system: SK-MEL-2 melanoma
K-562 leukemia = test system: K-562 leukemia
MDA-MB-435 = test system: MDA-MB-435
HCT-116 colon = test system: HCT-116 colon
LOX IMVI melanoma = test system: LOX IMVI melanoma
OVCAR-4 ovarian = test system: OVCAR-4 ovarian
NCI/ADR-RES ovarian = test system: NCI/ADR-RES ovarian
SF-268 CNS = test system: SF-268 CNS
786-0 renal = test system: 786-0 renal
HT29 colon = test system: HT29 colon
SNB-19 CNS = test system: SNB-19 CNS
NCI-H522 lung = test system: NCI-H522 lung
TK-10 renal = test system: TK-10 renal
SF-295 CNS = test system: SF-295 CNS
HCT-15 colon = test system: HCT-15 colon
PC-3 prostate = test system: PC-3 prostate
HOP-92 NSCLC = test system: HOP-92 NSCLC
EKVX NSCLC = test system: EKVX NSCLC
A498 renal = test system: A498 renal
OVCAR-5 ovarian = test system: OVCAR-5 ovarian
RXF 393 renal = test system: RXF 393 renal
SF-539 CNS = test system: SF-539 CNS
OVCAR-8 ovarian = test system: OVCAR-8 ovarian
NCI-H226 lung = test system: NCI-H226 lung
ACHN renal = test system: ACHN renal
SR leukemia = test system: SR leukemia
U251 CNS = test system: U251 CNS
MOLT-4 leukemia = test system: MOLT-4 leukemia
T-47D breast = test system: T-47D breast
UO-31 renal = test system: UO-31 renal
NCI-H460 lung = test system: NCI-H460 lung
MDA-MB-231 breast = test system: MDA-MB-231 breast
SN12C renal = test system: SN12C renal
NCI-H23 lung = test system: NCI-H23 lung
HOP-62 NSCLC = test system: HOP-62 NSCLC
MCF7 breast = test system: MCF7 breast
OVCAR-3 ovarian = test system: OVCAR-3 ovarian
MALME-3M melanoma = test system: MALME-3M melanoma
HCC-2998 colon = test system: HCC-2998 colon
SK-OV-3 ovarian = test system: SK-OV-3 ovarian
HS 578T breast = test system: HS 578T breast
CCRF-CEM leukemia = test system: CCRF-CEM leukemia
BT-549 breast = test system: BT-549 breast
M14 melanoma = test system: M14 melanoma
RPMI-8226 leukemia = test system: RPMI-8226 leukemia
COLO 205 colon = test system: COLO 205 colon
HL-60(TB) leukemia = test system: HL-60(TB) leukemia
SW-620 colon = test system: SW-620 colon
UACC-257 melanoma = test system: UACC-257 melanoma
SNB-75 CNS = test system: SNB-75 CNS
SK-MEL-5 melanoma = test system: SK-MEL-5 melanoma
KM12 colon = test system: KM12 colon
A549 NSCLC = test system: A549 NSCLC

With CCCCCCCCn1ccc2cc(NC(=O)Cn3cc(CN4CCC(C)CC4)nn3)ccc21 the GI50 (CAKI-1 renal) was 1670 nM, the TGI (CAKI-1 renal) was 3150 nM and the GI50 (UACC-62 melanoma) was 1880 nM. It also gave a TGI (UACC-62 melanoma) of 3370 nM, a GI50 (DU-145 prostate) of 1940 nM and a TGI (DU-145 prostate) of 3900 nM. The GI50 (IGROV1 ovarian) was 1430 nM, the TGI (IGROV1 ovarian) was 2960 nM and the GI50 (SK-MEL-2 melanoma) was 1850 nM. It also gave a TGI (SK-MEL-2 melanoma) of 3530 nM, a GI50 (K-562 leukemia) of 1610 nM and a TGI (K-562 leukemia) of 3510 nM. The GI50 (MDA-MB-435) was 1650 nM, the TGI (MDA-MB-435) was 3080 nM and the GI50 (HCT-116 colon) was 1570 nM. It also gave a TGI (HCT-116 colon) of 2930 nM, a GI50 (LOX IMVI melanoma) of 1640 nM and a TGI (LOX IMVI melanoma) of 3050 nM. For the same compound, the GI50 (OVCAR-4 ovarian) was 2070 nM, the TGI (OVCAR-4 ovarian) was 4850 nM and the GI50 (NCI/ADR-RES ovarian) was 1920 nM. For the same compound, the TGI (NCI/ADR-RES ovarian) was 3990 nM, the GI50 (SF-268 CNS) was 1820 nM and the TGI (SF-268 CNS) was 3530 nM. It also gave a GI50 (786-0 renal) of 1480 nM, a TGI (786-0 renal) of 2810 nM and a GI50 (HT29 colon) of 1730 nM. For the same compound, the TGI (HT29 colon) was 3320 nM, the GI50 (SNB-19 CNS) was 1760 nM and the TGI (SNB-19 CNS) was 3420 nM. For the same compound, the GI50 (NCI-H522 lung) was 1730 nM, the TGI (NCI-H522 lung) was 3480 nM and the GI50 (TK-10 renal) was 1700 nM. For the same compound, the TGI (TK-10 renal) was 3210 nM, the GI50 (SF-295 CNS) was 1860 nM and the TGI (SF-295 CNS) was 3500 nM. It also gave a GI50 (HCT-15 colon) of 1610 nM, a TGI (HCT-15 colon) of 3150 nM and a GI50 (PC-3 prostate) of 1730 nM. For the same compound, the TGI (PC-3 prostate) was 3680 nM, the GI50 (HOP-92 NSCLC) was 1160 nM and the TGI (HOP-92 NSCLC) was 2570 nM. The GI50 (EKVX NSCLC) was 1670 nM, the TGI (EKVX NSCLC) was 3660 nM and the GI50 (A498 renal) was 1600 nM. The TGI (A498 renal) was 3270 nM, the GI50 (OVCAR-5 ovarian) was 1630 nM and the TGI (OVCAR-5 ovarian) was 3420 nM. For the same compound, the GI50 (RXF 393 renal) was 1500 nM, the TGI (RXF 393 renal) was 3080 nM and the GI50 (SF-539 CNS) was 1700 nM. The TGI (SF-539 CNS) was 3080 nM, the GI50 (OVCAR-8 ovarian) was 1860 nM and the TGI (OVCAR-8 ovarian) was 3810 nM. The GI50 (NCI-H226 lung) was 1750 nM, the TGI (NCI-H226 lung) was 3830 nM and the GI50 (ACHN renal) was 1630 nM. It also gave a TGI (ACHN renal) of 2990 nM, a GI50 (SR leukemia) of 1900 nM and a TGI (SR leukemia) of 5240 nM. The GI50 (U251 CNS) was 1700 nM, the TGI (U251 CNS) was 3150 nM and the GI50 (MOLT-4 leukemia) was 2020 nM. For the same compound, the TGI (MOLT-4 leukemia) was 5550 nM, the GI50 (T-47D breast) was 1760 nM and the TGI (T-47D breast) was 4080 nM. For the same compound, the GI50 (UO-31 renal) was 1440 nM, the TGI (UO-31 renal) was 2740 nM and the GI50 (NCI-H460 lung) was 1700 nM. It also gave a TGI (NCI-H460 lung) of 3220 nM, a GI50 (MDA-MB-231 breast) of 1710 nM and a TGI (MDA-MB-231 breast) of 3240 nM. For the same compound, the GI50 (SN12C renal) was 1680 nM, the TGI (SN12C renal) was 3160 nM and the GI50 (NCI-H23 lung) was 2040 nM. For the same compound, the TGI (NCI-H23 lung) was 4340 nM, the GI50 (HOP-62 NSCLC) was 1760 nM and the TGI (HOP-62 NSCLC) was 3400 nM. It also gave a GI50 (MCF7 breast) of 1650 nM, a TGI (MCF7 breast) of 3250 nM and a GI50 (OVCAR-3 ovarian) of 1710 nM. The TGI (OVCAR-3 ovarian) was 3190 nM, the GI50 (MALME-3M melanoma) was 1660 nM and the TGI (MALME-3M melanoma) was 3120 nM. The GI50 (HCC-2998 colon) was 1740 nM, the TGI (HCC-2998 colon) was 3240 nM and the GI50 (SK-OV-3 ovarian) was 1900 nM. It also gave a TGI (SK-OV-3 ovarian) of 3700 nM, a GI50 (HS 578T breast) of 1600 nM and a TGI (HS 578T breast) of 4120 nM. For the same compound, the GI50 (CCRF-CEM leukemia) was 2500 nM, the TGI (CCRF-CEM leukemia) was 9710 nM and the GI50 (BT-549 breast) was 1530 nM. It also gave a TGI (BT-549 breast) of 3010 nM, a GI50 (M14 melanoma) of 1630 nM and a TGI (M14 melanoma) of 3080 nM. The GI50 (RPMI-8226 leukemia) was 2060 nM, the TGI (RPMI-8226 leukemia) was 4820 nM and the GI50 (COLO 205 colon) was 1820 nM. It also gave a TGI (COLO 205 colon) of 3460 nM, a GI50 (HL-60(TB) leukemia) of 1770 nM and a TGI (HL-60(TB) leukemia) of 3580 nM. It also gave a GI50 (SW-620 colon) of 1770 nM, a TGI (SW-620 colon) of 3460 nM and a GI50 (UACC-257 melanoma) of 1700 nM. It also gave a TGI (UACC-257 melanoma) of 3350 nM, a GI50 (SNB-75 CNS) of 1480 nM and a TGI (SNB-75 CNS) of 2820 nM. It also gave a GI50 (SK-MEL-5 melanoma) of 1720 nM, a TGI (SK-MEL-5 melanoma) of 3090 nM and a GI50 (KM12 colon) of 1810 nM. It also gave a TGI (KM12 colon) of 3390 nM, a GI50 (A549 NSCLC) of 1740 nM and a TGI (A549 NSCLC) of 3400 nM.
